In article PMC9019904, “AD Informer Set: Chemical tools to facilitate Alzheimer's disease drug discovery” (Alzheimer's & Dementia : Translational Research & Clinical …, 2022):
In brackets after ≈: the same amount, converted by molar mass.

Assays:
[1] = tested on: BV2 (mouse microglia) cell line; assay: pHrodo-myelin phagocytosis/cell viability high content imaging assay: viability (cell count, nuclear area, nuclear intensity); details: BV2 cells, 10 μM, cell count <70% control
Procedure, shortened: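 Immortalized microglia are treated with compound (10 μM, single concentration) for 48 h, the final 20 h alongside pHrodo-myelin. Data are the mean of duplicates, reported as % of untreated control.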

[2] = tested on: BV2 (mouse microglia) cell line; assay: pHrodo-myelin phagocytosis/cell viability high content imaging assay: phagocytosis signal; format: cell-based; details: BV2 cells, 10 μM
Procedure, shortened: (§1)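 Mouse BV2 and human HMC3 microglia given pHrodo-myelin; phagocytosis and cell viability imaged together by high content imaging about 22 hours after myelin addition. Three measurements extracted, including intensity increase and decrease marking early and later apoptosis.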

[3] = tested on: HMC3 (human microglia) cell line; assay: as above; format: cell-based; details: HMC3 cells, 10 μM
Procedure, shortened: as §1

[4] = tested on: protein product expressed by the gene target; details: cited from earlier work
[5] = tested on: cellular system; details: published cellular activity at 10 μM; cited from earlier work
[6] = physchem; details: pH 7.4, aqueous buffer, kinetic from dmso stock

c1cn2cc(-c3ccc4cn[nH]c4c3)nc(Nc3ccc(N4CCOCC4)cc3)c2n1 [Entospletinib (GS-9973)]
Mouse microglial cytotoxicity at 10 μM (<70% control) [1]: Y (The compound was found to be cytotoxic (cell count threshold: <70% control) when murine immortalized microglial cells were dosed at 10 μM (Y: yes)) | Inhibition of mouse microglial phagocytosis at 10 μM (<70% control) [2]: Y (The compound was found to inhibit phagocytosis (response threshold: <70% control) when murine immortalized microglial cells were dosed at 10 μM (Y: yes)) | Inhibition of human microglial phagocytosis at 10 μM (<70% control) [3]: Y (The compound was found to inhibit phagocytosis (response threshold: <70% control) when human immortalized microglial cells were dosed at 10 μM (Y: yes)) | Reported on-target biochemical potency [4]: 7.7 nM | Reported as cell active (<10 μM) [5]: Y (Published data supports that the compound is active in a cellular system when dosed at 10 μM (Y/N)) | solubility kinetic [6]: 0.5 µM (≈ 0.206 µg/mL)
